Assays:
PDE5A1 = target: T1, PDE5A1 (Homo sapiens, UniProt O76074); test: Inhibition of type 5 phosphodiesterase (PDE5) activity, modified SPA test with human platelet lysate; assay type: biochemical; conditions: 0.5 μM cGMP, read-out: PDE5A1 inhibitory values [measured as −log IC50 (mol/l)] (converted)
T1 construct: from tissue; host or cells: human platelets from fresh donor blood (10,000 x g supernatant of sonicated lysate)
In short: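 Scintillation proximity assay with [3H]cGMP tracer at 0.5 μM total cGMP, stopped after 15 min with beads containing IBMX. PDE3 and PDE2 activities suppressed with motapizone (1 μM) and a PDE2 inhibitor (10 nM). Human platelet supernatant served as the enzyme, with compound preincubated 5 min at 37° C; IC50 values from concentration-effect curves.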

PDE4B1 = target: T2, PDE4B1 (Homo sapiens, UniProt Q07343); test: Inhibition of type 4 phosphodiesterase (PDE4) activity, modified SPA test with recombinant PDE4B1 expressed in SF21 insect cells; assay type: biochemical; conditions: recombinant PDE4B1, 0.5 μM cAMP, read-out: PDE4B1 inhibitory values [measured as −log IC50 (mol/l)] (converted)
T2 construct: made in house; host or cells: SF21 insect cells (baculovirus; pCRBac vector), 1000 x g supernatant of homogenate
In short: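 Modified [3H]cAMP SPA using 1000×g supernatant of SF21 cells expressing recombinant human PDE4B1, in 20 mM Tris pH 7.4, 0.1 mg/ml BSA, 5 mM Mg2+, 0.5 μM cAMP. After 5 min preincubation at 37 °C, 15 min reaction, stopped with SPA beads plus IBMX; IC50 by non-linear regression.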

T2 sequence (Q07343 whole entry): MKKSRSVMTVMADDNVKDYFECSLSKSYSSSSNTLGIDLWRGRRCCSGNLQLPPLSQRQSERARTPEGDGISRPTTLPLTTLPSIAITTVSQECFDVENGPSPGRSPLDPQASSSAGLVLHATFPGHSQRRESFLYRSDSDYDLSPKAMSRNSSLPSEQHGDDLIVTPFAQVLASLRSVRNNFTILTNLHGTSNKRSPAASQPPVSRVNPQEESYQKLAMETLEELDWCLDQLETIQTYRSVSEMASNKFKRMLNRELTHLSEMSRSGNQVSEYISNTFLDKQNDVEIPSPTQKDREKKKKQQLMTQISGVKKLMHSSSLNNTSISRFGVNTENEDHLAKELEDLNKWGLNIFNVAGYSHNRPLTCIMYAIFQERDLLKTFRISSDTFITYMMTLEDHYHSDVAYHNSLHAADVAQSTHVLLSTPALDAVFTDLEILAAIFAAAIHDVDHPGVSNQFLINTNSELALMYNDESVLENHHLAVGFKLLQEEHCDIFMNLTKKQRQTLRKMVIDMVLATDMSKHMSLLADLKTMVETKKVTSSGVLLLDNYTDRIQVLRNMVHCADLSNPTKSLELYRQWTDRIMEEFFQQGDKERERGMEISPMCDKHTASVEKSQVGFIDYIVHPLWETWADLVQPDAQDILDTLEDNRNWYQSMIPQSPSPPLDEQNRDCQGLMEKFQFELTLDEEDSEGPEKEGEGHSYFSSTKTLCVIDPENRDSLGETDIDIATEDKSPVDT

| SMILES | IC50 (PDE5A1) [nM] | IC50 (PDE4B1) [nM] |
| --- | --- | --- |
| CC(=O)N[C@H]1CC[C@H](NC(=O)c2c(C)[nH]c3c(-c4cc(C(C)C)ccc4OCC4CC4)ncnc23)CC1 [Example E159, N-[trans-4-(Acetylamino)cyclohexyl]-4-[2-(cyclopropylmethoxy)-5-(propan-2-yl)phenyl]-6-methyl-5H-pyrrolo[3,2-d]pyrimidine-7-carboxamide] | < 1 | 100 to 1000 |
| COCC(=O)N[C@H]1CC[C@H](NC(=O)c2c(C)[nH]c3c(-c4cc(C(C)C)ccc4OCC4CC4)ncnc23)CC1 [Example E160, 4-[2-(Cyclopropylmethoxy)-5-(propan-2-yl)phenyl]-N-{trans-4-[(methoxyacetyl)amino]cyclohexyl}-6-methyl-5H-pyrrolo[3,2-d]pyrimidine-7-carboxamide] | < 1 | 100 to 1000 |
| CC(=O)N1CCC(NC(=O)c2c(C)[nH]c3c(-c4cc(C)ccc4OCC4CC4)nc(C)nc23)CC1 [Example E169, N-(1-Acetylpiperidin-4-yl)-4-[2-(cyclopropylmethoxy)-5-methylphenyl]-2,6-dimethyl-5H-pyrrolo[3,2-d]pyrimidine-7-carboxamide] | < 1 | 100 to 1000 |
| CCC(=O)N1CCC(NC(=O)c2c(C)[nH]c3c(-c4cc(C)ccc4OCC4CC4)nc(C)nc23)CC1 [Example E170, 4-[2-(Cyclopropylmethoxy)-5-methylphenyl]-2,6-dimethyl-N-(1-propanoylpiperidin-4-yl)-5H-pyrrolo[3,2-d]pyrimidine-7-carboxamide] | < 1 | 100 to 1000 |
| COCC(=O)N1CCC(NC(=O)c2c(C)[nH]c3c(-c4cc(C)ccc4OCC4CC4)nc(C)nc23)CC1 [Example E171, 4-[2-(Cyclopropylmethoxy)-5-methylphenyl]-N-[1-(methoxyacetyl)piperidin-4-yl]-2,6-dimethyl-5H-pyrrolo[3,2-d]pyrimidine-7-carboxamide] | < 1 | 100 to 1000 |
| Cc1ccc(OCC2CC2)c(-c2ncnc3c(C(=O)N[C@H]4CCC[C@@H]4O)c(C)[nH]c23)c1 [Example E176, 4-[2-(Cyclopropylmethoxy)-5-methylphenyl]-N-[(1S,2S)-2-hydroxycyclopentyl]-6-methyl-5H-pyrrolo[3,2-d]pyrimidine-7-carboxamide] | < 1 | < 100 |
| Cc1ccc(OCC2CC2)c(-c2ncnc3c(C(=O)N[C@H]4CCC[C@H]4O)c(C)[nH]c23)c1 [Example E177, 4-[2-(Cyclopropylmethoxy)-5-methylphenyl]-N-[(1S,2R)-2-hydroxycyclopentyl]-6-methyl-5H-pyrrolo[3,2-d]pyrimidine-7-carboxamide] | 1 to 10 | 100 to 1000 |
| Cc1ccc(OCC2CC2)c(-c2ncnc3c(C(=O)N[C@@H]4CCC[C@H]4O)c(C)[nH]c23)c1 [Example E178, 4-[2-(Cyclopropylmethoxy)-5-methylphenyl]-N-[(1R,2R)-2-hydroxycyclopentyl]-6-methyl-5H-pyrrolo[3,2-d]pyrimidine-7-carboxamide] | < 1 | 100 to 1000 |
| Cc1[nH]c2c(-c3cc(F)ccc3OCC3CC3)ncnc2c1C(=O)NC1CCN(C(=O)CO)CC1 [Example F23, 4-(2-Cyclopropylmethoxy-5-fluoro-phenyl)-6-methyl-5H-pyrrolo[3,2-d]pyrimidine-7-carboxylic acid [1-(2-hydroxy-acetyl)-piperidin-4-yl]-amide] | 1 to 10 | 100 to 1000 |
| Cc1[nH]c2c(-c3cc(F)ccc3OCC3CC3)ncnc2c1C(=O)NC1CCN(C(=O)[C@H](C)O)CC1 [Example F24, 4-(2-Cyclopropylmethoxy-5-fluoro-phenyl)-6-methyl-5H-pyrrolo[3,2-d]pyrimidine-7-carboxylic acid [1-((S)-2-hydroxy-propionyl)-piperidin-4-yl]-amide] | < 1 | 100 to 1000 |
| Cc1[nH]c2c(-c3cc(F)ccc3OCC3CC3)ncnc2c1C(=O)N[C@H]1CC[C@H](NC(=O)CO)CC1 [Example F25, 4-[2-(Cyclopropylmethoxy)-5-fluorophenyl]-N-[trans-4-(glycoloylamino)cyclohexyl]-6-methyl-5H-pyrrolo[3,2-d]pyrimidine-7-carboxamide] | < 1 | < 100 |
| Cc1[nH]c2c(-c3cc(F)ccc3OCC3CC3)ncnc2c1C(=O)N[C@H]1CC[C@H](NC(=O)[C@H](C)O)CC1 [Example F26, 4-[2-(Cyclopropylmethoxy)-5-fluorophenyl]-N-(trans-4-{[(2S)-2-hydroxypropanoyl]amino}cyclohexyl)-6-methyl-5H-pyrrolo[3,2-d]pyrimidine-7-carboxamide] | < 1 | < 100 |
| Cc1[nH]c2c(-c3cc(F)ccc3OCC3CC3)ncnc2c1C(=O)N[C@H]1CC[C@@H](NC(=O)[C@H](C)O)CC1 [Example F27, 4-[2-(Cyclopropylmethoxy)-5-fluorophenyl]-N-(cis-4-{[(2S)-2-hydroxypropanoyl]amino}cyclohexyl)-6-methyl-5H-pyrrolo[3,2-d]pyrimidine-7-carboxamide] | 1 to 10 | 100 to 1000 |
| COc1ccc(OCC2CC2)c(-c2ncnc3c(C(=O)NC4CCN(C(=O)CO)CC4)c(C)[nH]c23)c1 [Example F41, 4-[2-(Cyclopropylmethoxy)-5-methoxyphenyl]-N-(1-glycoloylpiperidin-4-yl)-6-methyl-5H-pyrrolo[3,2-d]pyrimidine-7-carboxamide] | < 1 | 100 to 1000 |
| COc1ccc(OCC2CC2)c(-c2ncnc3c(C(=O)NC4CCN(C(=O)[C@H](C)O)CC4)c(C)[nH]c23)c1 [Example F42, 4-[2-(Cyclopropylmethoxy)-5-methoxyphenyl]-N-{1-[(2S)-2-hydroxypropanoyl]piperidin-4-yl}-6-methyl-5H-pyrrolo[3,2-d]pyrimidine-7-carboxamide] | < 1 | 100 to 1000 |
| COc1ccc(OCC2CC2)c(-c2ncnc3c(C(=O)N[C@H]4CC[C@H](NC(=O)CO)CC4)c(C)[nH]c23)c1 [Example F43, 4-[2-(Cyclopropylmethoxy)-5-methoxyphenyl]-N-[trans-4-(glycoloylamino)cyclohexyl]-6-methyl-5H-pyrrolo[3,2-d]pyrimidine-7-carboxamide] | < 1 | 100 to 1000 |
| COc1ccc(OCC2CC2)c(-c2ncnc3c(C(=O)NC4CCC(NC(=O)C(C)O)CC4)c(C)[nH]c23)c1 (stereo not drawn) [Example F44, 4-[2-(Cyclopropylmethoxy)-5-methoxyphenyl]-N-(trans-4-{[(25)-2-hydroxypropanoyl]amino}cyclohexyl)-6-methyl-5H-pyrrolo[3,2-d]pyrimidine-7-carboxamide] | < 1 | 100 to 1000 |
| COc1ccc(OCC2CC2)c(-c2ncnc3c(C(=O)N[C@H]4CC[C@@H](NC(=O)CO)CC4)c(C)[nH]c23)c1 [Example F45, 4-[2-(Cyclopropylmethoxy)-5-methoxyphenyl]-N-[cis-4-(glycoloylamino)cyclohexyl]-6-methyl-5H-pyrrolo[3,2-d]pyrimidine-7-carboxamide] | < 1 | 100 to 1000 |
| COc1ccc(OCC2CC2)c(-c2ncnc3c(C(=O)N[C@H]4CC[C@@H](NC(=O)[C@H](C)O)CC4)c(C)[nH]c23)c1 [Example F46, 4-[2-(cyclopropylmethoxy)-5-methoxyphenyl]-N-(cis-4-{[(2S)-2-hydroxypropanoyl]amino}cyclohexyl)-6-methyl-5H-pyrrolo[3,2-d]pyrimidine-7-carboxamide] | < 1 | 100 to 1000 |
| Cc1ccc(OCC2CC2)c(-c2ncnc3c(C(=O)NC4CCN(C(=O)CO)CC4)c(C)[nH]c23)c1 [Example F51] | < 1 | < 100 |
| Cc1ccc(OCC2CC2)c(-c2ncnc3c(C(=O)NC4CCN(C(=O)[C@H](C)O)CC4)c(C)[nH]c23)c1 [Example F52, 4-[2-(Cyclopropylmethoxy)-5-methylphenyl]-N-{1-[(2S)-2-hydroxypropanoyl]piperidin-4-yl}-6-methyl-5H-pyrrolo[3,2-d]pyrimidine-7-carboxamide] | < 1 | < 100 |
| Cc1ccc(OCC2CC2)c(-c2ncnc3c(C(=O)N[C@H]4CC[C@H](NC(=O)CO)CC4)c(C)[nH]c23)c1 [Example F53, 4-[2-(Cyclopropylmethoxy)-5-methylphenyl]-N-{trans-4-[(hydroxyacetyl)amino]cyclohexyl}-6-methyl-5H-pyrrolo[3,2-d]pyrimidine-7-carboxamide] | < 1 | < 100 |
| Cc1ccc(OCC2CC2)c(-c2ncnc3c(C(=O)N[C@H]4CC[C@H](NC(=O)[C@H](C)O)CC4)c(C)[nH]c23)c1 [Example F54, 4-[2-(Cyclopropylmethoxy)-5-methylphenyl]-N-(trans-4-{[(2S)-2-hydroxypropanoyl]amino}cyclohexyl)-6-methyl-5H-pyrrolo[3,2-d]pyrimidine-7-carboxamide] | < 1 | < 100 |
| Cc1ccc(OCC2CC2)c(-c2ncnc3c(C(=O)N[C@H]4CC[C@@H](NC(=O)CO)CC4)c(C)[nH]c23)c1 [Example F55, 4-[2-(Cyclopropylmethoxy)-5-methylphenyl]-N-{cis-4-[(hydroxyacetyl)amino]cyclohexyl}-6-methyl-5H-pyrrolo[3,2-d]pyrimidine-7-carboxamide] | < 1 | < 100 |

Reference: patent US9376442B2, “Methylpyrrolopyrimidinecarboxamides” (Takeda GmbH, priority 2009, dated 2016)
